In ChEMBL document CHEMBL5537162, “Development of Antibacterial Peptides with Membrane Disruption and Folate Pathway Inhibitory Activities against Methicillin-Resistant Staphylococcus aureus” (J Med Chem, 2024):
Active and inactive are the calls of the source. The rule behind the calls is not given here.

How the values were obtained:
[1] = test system: Staphylococcus aureus; test: Antibacterial activity against methicillin-resistant Staphylococcus aureus 18908 assessed as bacterial growth inhibition incubated for 24 hrs by CLSI based micro-broth dilution assay; assay type: functional
[2] = Selectivity index, ratio of IC50 for antiproliferative activity against HEK293T cells assessed as reduction in cell viability to MIC for antibacterial activity against methicillin-resistant Staphylococcus aureus assessed as bacterial growth inhibition; assay type: toxicity, cell-based; details: human, read-out: Selectivity Index
[3] = Hemolytic activity in mouse RBC assessed as hemolysis at 320 uM incubated for 1 hrs by spectrophotometric analysis relative to control; assay type: toxicity, cell-based, Erythrocyte; details: mouse red blood cells (erythrocytes), read-out: %max
[4] = test system: Staphylococcus aureus; test: Antibacterial activity against methicillin-resistant Staphylococcus aureus 18878 assessed as bacterial growth inhibition incubated for 24 hrs by CLSI based micro-broth dilution assay; assay type: functional
[5] = test system: Pseudomonas aeruginosa; test: Antibacterial activity against Pseudomonas aeruginosa assessed as bacterial growth inhibition incubated for 24 hrs by CLSI based micro-broth dilution assay; assay type: functional
[6] = test system: Staphylococcus aureus; test: Antibacterial activity against methicillin-resistant Staphylococcus aureus 18466 assessed as bacterial growth inhibition incubated for 24 hrs by CLSI based micro-broth dilution assay; assay type: functional
[7] = test system: Cell membrane; test: Disruption of membrane integrity in methicillin-resistant Staphylococcus aureus measured for 6 hrs by scanning electron microscopic analysis; assay type: cell membranes
[8] = test system: Staphylococcus aureus; test: Antibacterial activity against methicillin-resistant Staphylococcus aureus assessed as fold reduction in viable bacteria at 8 times MIC measured at 3 to 6 hrs by time-kill assay; assay type: functional, organism-based; details: time 3-6 hrs
[9] = test system: Cell membrane; test: Disruption of membrane integrity in methicillin-resistant Staphylococcus aureus assessed as increase in fluorescence intensity measured for 120 mins by confocal microscopic analysis; assay type: cell membranes
[10] = test system: Candida albicans; test: Antifungal activity against Candida albicans assessed as inhibition of fungal growth; assay type: functional
[11] = Antiproliferative activity against HEK293T cells assessed as reduction in cell viability measured for 48 hrs by MTT assay; assay type: toxicity, cell-based, HEK-293T; details: human
[12] = test system: Staphylococcus aureus; test: Antibacterial activity against Methicillin-resistant Staphylococcus aureus infected in ICR mouse skin infection model assessed as log reduction in bacterial count at 40 mg/kg, sc measured upto 10 days; assay type: functional; details: time <= 10 day
[13] = test system: Staphylococcus aureus; test: Antibacterial activity against methicillin-resistant Staphylococcus aureus assessed as reduction in viable bacteria at 1 to 8 times MIC measured at 1 hr by time-kill assay; assay type: functional, organism-based
[14] = test system: Staphylococcus aureus; test: Antibacterial activity against methicillin-resistant Staphylococcus aureus 18475 assessed as bacterial growth inhibition incubated for 24 hrs by CLSI based micro-broth dilution assay; assay type: functional
[15] = test system: Staphylococcus aureus; test: Drug resistance, ratio of MIC for methicillin-resistant Staphylococcus aureus after 3 days exposure to MIC for methicillin-resistant Staphylococcus aureus during first exposure; assay type: functional; details: time 3 day
[16] = Stability in mouse blood plasma measured for 24 hrs by RP-HPLC analysis; assay type: ADME, cell-free
[17] = molecular target: T1, Monofunctional C1-tetrahydrofolate synthase, mitochondrial (Homo sapiens) (UniProt Q6UB35); test: Inhibition of FTHFS (unknown origin) expressed in Escherichia coli BL21 (DE3) incubated for 10 mins by UV-spectrophotometer analysis
T1 sequence (whole entry): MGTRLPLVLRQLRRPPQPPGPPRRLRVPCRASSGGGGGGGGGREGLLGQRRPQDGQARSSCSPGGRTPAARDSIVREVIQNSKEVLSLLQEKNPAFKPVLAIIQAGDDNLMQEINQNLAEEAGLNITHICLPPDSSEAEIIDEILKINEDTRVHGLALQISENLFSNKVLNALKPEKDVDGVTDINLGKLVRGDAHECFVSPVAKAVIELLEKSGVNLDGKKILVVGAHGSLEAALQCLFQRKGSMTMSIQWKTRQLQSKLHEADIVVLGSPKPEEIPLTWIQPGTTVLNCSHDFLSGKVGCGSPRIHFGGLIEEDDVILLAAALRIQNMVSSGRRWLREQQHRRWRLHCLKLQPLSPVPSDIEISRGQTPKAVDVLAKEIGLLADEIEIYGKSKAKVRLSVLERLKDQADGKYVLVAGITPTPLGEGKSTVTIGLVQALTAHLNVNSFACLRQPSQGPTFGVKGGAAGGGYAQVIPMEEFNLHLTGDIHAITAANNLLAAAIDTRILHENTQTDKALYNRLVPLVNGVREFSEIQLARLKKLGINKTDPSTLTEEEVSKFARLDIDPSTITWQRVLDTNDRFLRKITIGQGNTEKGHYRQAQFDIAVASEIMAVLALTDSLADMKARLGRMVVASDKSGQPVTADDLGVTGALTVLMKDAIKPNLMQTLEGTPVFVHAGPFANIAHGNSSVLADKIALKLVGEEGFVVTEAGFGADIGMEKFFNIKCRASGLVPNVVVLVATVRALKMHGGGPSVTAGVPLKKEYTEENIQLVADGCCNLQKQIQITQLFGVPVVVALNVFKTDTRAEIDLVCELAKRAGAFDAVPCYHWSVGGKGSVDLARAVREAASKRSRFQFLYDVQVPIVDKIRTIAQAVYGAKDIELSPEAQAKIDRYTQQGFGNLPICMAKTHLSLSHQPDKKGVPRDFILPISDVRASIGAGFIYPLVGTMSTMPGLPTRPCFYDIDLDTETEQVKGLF

[18] = test system: Staphylococcus aureus; test: Drug resistance, ratio of MIC for methicillin-resistant Staphylococcus aureus after 1 week exposure to MIC for methicillin-resistant Staphylococcus aureus during first exposure; assay type: functional; details: time 1 weeks
[19] = test system: Staphylococcus aureus; test: Antibacterial activity against Staphylococcus aureus 8325.4 assessed as bacterial growth inhibition incubated for 24 hrs by CLSI based micro-broth dilution assay; assay type: functional
[20] = test system: Staphylococcus aureus; test: Antibacterial activity against methicillin-resistant Staphylococcus aureus 19498 assessed as bacterial growth inhibition incubated for 24 hrs by CLSI based micro-broth dilution assay; assay type: functional
[21] = test system: Staphylococcus aureus; test: Antibacterial activity against methicillin-resistant Staphylococcus aureus 19167 assessed as bacterial growth inhibition incubated for 24 hrs by CLSI based micro-broth dilution assay; assay type: functional
[22] = test system: Staphylococcus aureus; test: Antibacterial activity against methicillin-resistant Staphylococcus aureus assessed as bacterial growth inhibition incubated for 24 hrs by CLSI based micro-broth dilution assay; assay type: functional
[23] = test system: Staphylococcus aureus; test: Antibacterial activity against Staphylococcus aureus 29213 assessed as bacterial growth inhibition incubated for 24 hrs by CLSI based micro-broth dilution assay; assay type: functional
[24] = Stability in mouse blood plasma measured for 12 hrs by RP-HPLC analysis; assay type: ADME, cell-free; details: read-out: Stability
[25] = test system: Staphylococcus aureus; test: Antibacterial activity against Staphylococcus aureus 25923 assessed as bacterial growth inhibition incubated for 24 hrs by CLSI based micro-broth dilution assay; assay type: functional
[26] = test system: Staphylococcus aureus; test: Antibacterial activity against methicillin-resistant Staphylococcus aureus assessed as fold reduction in viable bacteria at 1 to 8 times MIC measured at 3 hr by time-kill assay; assay type: functional
[27] = (§1) Hemolytic activity in mouse RBC assessed as hemolysis incubated for 1 hrs by spectrophotometric analysis; assay type: toxicity, cell-based, Erythrocyte; details: mouse red blood cells (erythrocytes)
[28] = test system: Erythrocyte; test: as §1; assay type: toxicity, cell-based; details: erythrocyte, 1 h
[29] = test system: Staphylococcus aureus; test: Drug resistance, ratio of MIC for methicillin-resistant Staphylococcus aureus after 7 days exposure to MIC for methicillin-resistant Staphylococcus aureus during first exposure; assay type: functional; details: time 7 day
[30] = test system: Staphylococcus aureus; test: Antibacterial activity against methicillin-resistant Staphylococcus aureus 18858 assessed as bacterial growth inhibition incubated for 24 hrs by CLSI based micro-broth dilution assay; assay type: functional
[31] = test system: Escherichia coli; test: Antibacterial activity against Escherichia coli assessed as bacterial growth inhibition incubated for 24 hrs by CLSI based micro-broth dilution assay; assay type: functional

H-LARVARRVIRFIRRAW-NH2
MIC [1]: 3 µM
selectivity ratio [2]: 107
hemolysis at 1 h, 320 µM [3]: 8.58%
MIC [4]: 6 µM
MIC [5]: > 48 µM
MIC [6]: 6 µM
Activity [7]: Active
Activity [8]: Active
Activity [9]: Active
MIC [10]: 3 µM
IC50 at 48 h [11]: > 320 µM
log(activity) [12]: 5.9
Activity [13]: Active
MIC [14]: 6 µM
Ratio [15]: 50
Stability [16]: Unstable
inhibition [17]: Active
Ratio [18]: 4
MIC [19]: 3 µM
MIC [20]: 6 µM
MIC [21]: 6 µM
MIC [22]: 3 µM
MIC [23]: 3 µM
remaining at 12 h [24]: 20%
MIC [25]: 3 µM
fold change (FC) [26]: ~300
HC50 at 1 h [27]: > 320 µM
HC10 [28]: > 320 µM
Ratio [29]: 100
MIC [30]: 3 µM
MIC [31]: > 48 µM

H-RRRLARRLIFFIRRAW-NH2
MIC [1]: 3 µM
selectivity ratio [2]: 107
hemolysis at 1 h, 320 µM [3]: 8.97%
MIC [4]: 6 µM
MIC [5]: > 48 µM
MIC [6]: 6 µM
Activity [7]: Active
Activity [8]: Active
Activity [9]: Active
MIC [10]: 3 µM
IC50 at 48 h [11]: > 320 µM
log(activity) [12]: 5.8
Activity [13]: Active
MIC [14]: 6 µM
Ratio [15]: 50
Stability [16]: Unstable
inhibition [17]: Active
Ratio [18]: 8
MIC [19]: 3 µM
MIC [20]: 3 µM
MIC [21]: 6 µM
MIC [22]: 3 µM
MIC [23]: 3 µM
remaining at 12 h [24]: 20%
MIC [25]: 3 µM
fold change (FC) [26]: ~300
HC50 at 1 h [27]: > 320 µM
HC10 [28]: > 320 µM
Ratio [29]: 100
MIC [30]: 3 µM
MIC [31]: > 48 µM
